# In publication PMC4508327 (Clinical cancer research : an official journal of the …, 2015):
# How the values were obtained:
# QTc interval = format: in vivo, human
# advanced solid tumors = experiment: Objective tumor response; format: in vivo, human
# [1] = system: patients with advanced solid tumors; details: human, in vivo
# [2] = in vivo
# [3] = preclinical; no reference given; cited from earlier work
# [4] = system: patients with advanced solid tumors; experiment: Phase I safety: adverse events
smiles,measurement,setting,value
CN(C)C1CCN(C(=O)c2ccc(NC(=O)Nc3ccc(-c4nc(N5CCOCC5)nc(N5CCOCC5)n4)cc3)cc2)CC1 [PF-05212384],association with QTc prolongation,QTc interval; based on the lack of a dose-effect relationship,likely not associated with QTc prolongation
same,patients with grade 1 QTc prolongation,"QTc interval; human, in vivo",5%
same,patients with grade 2 QTc prolongation,"QTc interval; human, in vivo",5%
same,patients with grade 3 QTc prolongation,QTc interval; in vivo,no patients
same,patients with long-lasting stable disease (>6 months),advanced solid tumors; 77 treated patients,Eight
same,clinical benefit response (CBR),"advanced solid tumors; CR, PR or SD lasting ≥6 months, overall",13%
same,objective tumor response rate,"advanced solid tumors; overall study population, n = 77",2.6%
same,partial responses (PR),"advanced solid tumors; overall study population, plus one unconfirmed PR",two
same,all-cause AE: anemia,[1],18.2%
same,all-cause AE: asthenia,[1],26%
same,all-cause AE: back pain,[1],19.5%
same,all-cause AE: constipation,[1],23.4%
same,all-cause AE: cough,[1],23.4%
same,all-cause AE: decreased appetite,[1],37.7%
same,all-cause AE: diarrhea,[1],24.7%
same,all-cause AE: dyspnea,[1],19.5%
same,all-cause AE: fatigue,[1],32.5%
same,all-cause AE: hyperglycemia,[1],28.6%
same,all-cause AE: increased ALT and AST,[1],16.9%
same,all-cause AE: mucosal inflammation and stomatitis,[1],59.7%
same,all-cause AE: nausea,[1],55.8%
same,all-cause AE: pyrexia,[1],23.4%
same,all-cause AE: rash,[1],23.4%
same,all-cause AE: vomiting,[1],35.1%
same,patients who discontinued due to treatment-related AEs,[1],3.9%
same,treatment-related AE: decreased appetite,[1],24.7%
same,treatment-related AE: fatigue,[1],24.7%
same,treatment-related AE: hyperglycemia,[1],26%
same,treatment-related AE: mucosal inflammation and stomatitis,[1],58.4%
same,treatment-related AE: nausea,[1],42.9%
same,treatment-related AE: vomiting,[1],24.7%
same,recommended phase 2 dose,[1]; iv,154 mg
same,accumulation (accumulation ratios for Cmax),[2]; human,no accumulation
same,interpatient variability in Cmax and AUC,[2]; human,low to moderate
same,"terminal T1/2, mean values",[2]; human,33 to 41 h
same,Cmax and AUC versus dose,[2],appeared to increase proportionally with increasing dose
same,"effect on cardiac, central nervous system or respiratory function",[3],did not show any significant effect
same,maximum tolerated dose (MTD),"[4]; IV once weekly, estimated by modified CRM",154 mg
same,deaths on study and within 28 days of last-dose administration,"[4]; seven disease progression, one colon obstruction, one pneumonia",Nine
